Reference: PMC5374206, “Anti-bacterial and Anti-biofilm Evaluation of Thiazolopyrimidinone Derivatives Targeting the Histidine Kinase YycG Protein of Staphylococcus epidermidis” (Frontiers in Microbiology, 2017)
≈ marks a conversion by molar mass, not a printed value. Where two headings read alike, the source gives them in different places.

Assays:
[1] = system: MRSA strain 226 young biofilms; assay: Microtiter plate assay of 6 h young biofilms of MRSA; format: cell-based, S. aureus
Description: The biofilm-killing effect for immature (6 h old) biofilms was determined in TSB using a semi-quantitative assay. An overnight culture was diluted 1:200 into TSB medium with 0.25% glucose, and incubated in polystyrene 96-well plates at 37°C for 6 h. Biofilms were exposed to two-fold serial dilutions of the derivatives, and the plates were incubated for another 18 h at 37°C. Following the incubation and removal of non-adherent cells with 200 μl of phosphate-buffered saline, adherent biofilms were fixed with 95% methanol and stained with 2% (w/v) crystal violet. Then, the wells were washed three times with sterile distilled water and the plates were air dried for 2 h. The optical density of each well at 570 nm was determined using a 96-well plate spectrophotometer (DTX880, Beckman Coulter, USA).

E. coli ATCC 25922 = assay: MIC tube-dilution assay; format: cell-based, Escherichia coli; conditions: E. coli ATCC29522 (head), highest concentration used 200 μM
Description: (§1) The MIC assays of the derivatives of compound 5 against S. epidermidis, S. aureus, MRSA and E. coli were performed by using the methods described previously by Wiegand et al. ([2008]). In brief, two-fold serial dilutions of the derivatives were prepared in tubes containing 4 mL MHB medium, yielding final concentrations from 200 to 0.78 μM. Bacterial cultures were grown overnight and adjusted so that the bacterial suspension turbidity was equivalent to a 0.5 McFarland standard (~1 × 10^8 CFU/mL) and further diluted to 1:200 into MHB medium. The contents in the tubes were mixed thoroughly and incubated at 37°C with shaking at 220 rpm for 16–20 h. The MIC endpoint was defined as the lowest concentration at which there was no visible growth in the tubes. The MBC values were assessed by plating 100 μL samples from each negative (no visible bacterial growth) culture tube from the MIC assays onto blank MHB agar plates. After incubation at 37°C for 24 h, the bacterial colonies on the plates were counted. The MBC was the concentration at which a 99.9% reduction of the original inoculum was observed (Pridmore et al., [2011]). In this assay, all the experiments were performed three times.

Cytotoxicity MTT assay = format: cell-based; conditions: African green monkey, Vero cells, highest concentration tested 200 μM
Description: A Cell Proliferation Kit I (MTT; Roche, Indianapolis, USA) was used to detect the cytotoxicity of the derivatives against Vero cells. Vero cells were added to 96-well microtiter plates at a concentration of 5 × 10^4 cells/well in 100 μL of culture medium. After 24 h, culture medium was replaced by 100 μL serial dilutions of the derivatives (0.78–100 μM) and the cells were incubated for 4 h in an atmosphere of 5% CO2, then 10 μL of the MTT stock solution was added to each well and the plate returned to the 37°C incubator for 4 h. Subsequent to the incubation, the purple formazan salts were dissolved in DMSO, and the absorbance of each well was measured at wavelengths of 595 nm (test) and 655 nm (reference). Cells treated with the solvent (0.1% DMSO) were used as a blank control. The concentration of the derivatives that produced a 50% cytotoxicity effect on Vero cells (CC50) was calculated using Origin v8.0 software (Origin Lab, Northampton, USA).

[2] = system: methicillin-resistant S. aureus (MRSA) clinical isolates; assay: MIC and MBC against clinical MRSA isolates; format: cell-based; conditions: Staphylococcus aureus
Description: S. epidermidis ATCC 12228 (biofilm negative), S. epidermidis ATCC 35984 (biofilm positive), S. aureus ATCC 49230 and Escherichia coli ATCC 25922 were used in this study. Six clinical methicillin-resistant S. aureus (MRSA) isolates were collected from the Department of Clinical Laboratory, Shanghai General Hospital, School of Medicine, Shanghai Jiaotong University, China. Staphylococcal strains were grown in tryptic soy broth (TSB; Oxoid Ltd., Basingstoke, England), and E. coli strains were grown in Luria-Bertani broth medium. Mueller-Hinton broth (MHB; Oxoid Ltd., Basingstoke, England) was used for antimicrobial susceptibility testing. Vancomycin and ampicillin were obtained from the Sigma Chemical Co. (St Louis, MO, USA).
as §1

[3] = system: S. epidermidis ATCC 35984; assay: Time-kill assay against fast-growing S. epidermidis; format: cell-based, Staphylococcus epidermidis; conditions: 4 × MIC; within/after 1 h; inoculum ~1 × 10^7 CFU/mL; MHB
Description: Suspensions of S. epidermidis (1 × 10^7 CFU/mL) were prepared and separately treated with the derivatives of compound 5 or vancomycin at concentrations of 4 × MIC in fresh MHB. Time-kill experiments were performed at 37°C with shaking at 220 rpm under aerobic conditions. Aliquots (1 mL) were removed from the culture medium at different time points (0, 1, 3, 5, 8, and 24 h), serially diluted and 100 μL of each of the dilutions plated out onto tryptic soy agar. After incubating at 37°C for 24 h, emergent bacterial colonies were counted, and the activity of the derivatives against fast-growing S. epidermidis cells was determined by plotting log10 colony counts (CFU/mL) against time. Bactericidal activity was defined as a 3-log10 decrease in CFU/mL. This assay was performed in triplicate and similar results were obtained.

[4] = system: Enterococcus faecalis OG1RF; assay: Standard tube-dilution assay against Enterococcus faecalis; format: cell-based; conditions: result in words
[5] = system: S. epidermidis ATCC 35984; assay: MIC and MBC tube-dilution assay; format: cell-based; conditions: Staphylococcus epidermidis; for MBC: ATCC35984, 99.9% reduction of inoculum; for MIC: ATCC35984, MHB, 16–20 h
Description: as §1

[6] = Erythrocyte hemolysis assay; format: cell-based; conditions: human, erythrocytes (5% suspension), 37°C; for hemolysis at 1 h, 200 µM: at 200 μM; for hemolysis at 1 h: at MIC (against S epidermidis ATCC 35984)
Description: Hemolytic activities of the derivatives were measured on healthy human erythrocytes. A pure suspension of erythrocytes was obtained by washing a blood sample with sterile 0.9% NaCl saline solution. Erythrocytes were resuspended in normal saline to give a 5% solution, then treated with MIC, 4 × MIC or 200 μM of the derivatives for 1 h at 37°C in 96-well microtiter plates. After the incubation and centrifugation at 1,000 g for 10 min, supernatants were transferred to another sterile plate and the absorbance at 570 nm was measured on a spectrophotometric microplate reader. A positive control (100% hemolysis) and a negative control (0% hemolysis) were achieved by incubating with 1% Triton-X 100 and 0.1% DMSO, respectively. Each assay was performed in triplicate and repeated three times.

[7] = Escherichia coli, ATCC 25922 / ATCC 29522
[8] = MRSA strain 66, ST239, read-out: MIC
[9] = MRSA strain 69, ST217, read-out: MIC
[10] = MRSA strain 141, ST5, read-out: MIC
[11] = MRSA strain 226, ST59, read-out: MIC
[12] = MRSA strain 258, ST239, read-out: MIC
[13] = MRSA strain 260, ST764, read-out: MIC
[14] = range over six isolates, read-out: MICs against six MRSA clinical isolates

Row | SMILES | minimal biofilm-killing concentration [1] [µM] | MIC (E. coli ATCC 25922) [µM] | MIC (E. coli ATCC 25922; [7]) [µM] | CC50 at 4 h (Cytotoxicity MTT assay) [µM] | MBC ([2]; MRSA strain 66, ST239) [µM] | MIC [2, 8] [µM] | MBC ([2]; MRSA strain 69, ST217) [µM] | MIC [2, 9] [µM] | MBC ([2]; MRSA strain 141, ST5) [µM] | MIC [2, 10] [µM] | MBC ([2]; MRSA strain 226, ST59) [µM] | MIC [2, 11] [µM] | MBC ([2]; MRSA strain 258, ST239) [µM] | MIC [2, 12] [µM] | MBC ([2]; MRSA strain 260, ST764) [µM] | MIC [2, 13] [µM] | MIC [2, 14] [µM] | reduction in CFU/mL [3] [log] | anti-bacterial activity [4] | MBC [5] [µM] | further results
1 | O=C(O)c1cccc(-c2ccc(C=c3sc4n(c3=O)C(c3ccc(F)cc3)C=C(c3ccccc3)N=4)o2)c1 (centres unmarked) [H5-33, 3-{5-[5-(4-fluoro-phenyl)-3-oxo-7-phenyl-5H-thiazolo [3,2-a]pyrimidin-2-ylidenemethyl]-furan-2-yl}-benzoic acid] | 200 | >200 | > 200 | > 200 | 200 (≈ 105 µg/mL) | 6.25 (≈ 3.27 µg/mL) | 50 (≈ 26.1 µg/mL) | 6.25 (≈ 3.27 µg/mL) | 200 (≈ 105 µg/mL) | 6.25 (≈ 3.27 µg/mL) | 200 (≈ 105 µg/mL) | 6.25 (≈ 3.27 µg/mL) | 200 (≈ 105 µg/mL) | 6.25 (≈ 3.27 µg/mL) | 200 (≈ 105 µg/mL) | 6.25 (≈ 3.27 µg/mL) | 3.13 to 6.25 (≈ 1.64 to 3.27 µg/mL) | 3 | displayed anti-bacterial activities | 12.5 (≈ 6.53 µg/mL) | MIC [5]: 3.13 µM (≈ 1.64 µg/mL); hemolysis at 1 h, 200 µM [6]: 0.32 ± 0.05%; hemolysis at 1 h [6]: 0.15 ± 0.06%
2 | CCOC(=O)C1=C(c2ccccc2)N=c2sc(=Cc3ccc(-c4ccc(C(=O)O)cc4)o3)c(=O)n2C1c1ccc(Cl)cc1 (centres unmarked) [H5-34, 2-[5-(4-carboxy-phenyl)-furan-2-ylmethylene]-5-(4-chloro-phenyl)-3-oxo-7-phenyl-2,3-dihydro-5H-thiazolo[3,2-a]pyrimidine-6-carboxylic acid ethyl ester] | 200 | >200 | > 200 | > 200 | 200 (≈ 122 µg/mL) | 3.13 (≈ 1.91 µg/mL) | 50 (≈ 30.6 µg/mL) | 6.25 (≈ 3.82 µg/mL) | 200 (≈ 122 µg/mL) | 6.25 (≈ 3.82 µg/mL) | 100 (≈ 61.1 µg/mL) | 6.25 (≈ 3.82 µg/mL) | 200 (≈ 122 µg/mL) | 6.25 (≈ 3.82 µg/mL) | 200 (≈ 122 µg/mL) | 6.25 (≈ 3.82 µg/mL) | 3.13 to 6.25 (≈ 1.91 to 3.82 µg/mL) | 3 | displayed anti-bacterial activities | 25 (≈ 15.3 µg/mL) | MIC [5]: 3.13 µM (≈ 1.91 µg/mL); hemolysis at 1 h, 200 µM [6]: 0.19 ± 0.01%; hemolysis at 1 h [6]: 0.22 ± 0.57%
3 | CCOC(=O)C1=C(c2ccccc2)N=c2sc(=Cc3ccc(-c4ccc(C(=O)O)cc4)o3)c(=O)n2C1c1ccc(F)cc1 (centres unmarked) [H5-35, 2-[5-(4-carboxy-phenyl)-furan-2-ylmethylene]-5-(4-fluoro-phenyl)-3-oxo-7-phenyl-2,3-dihydro-5H-thiazolo[3,2-a]pyrimidine-6-carboxylic acid ethyl ester] | 200 | >200 | > 200 | > 200 | 200 (≈ 119 µg/mL) | 3.13 (≈ 1.86 µg/mL) | 50 (≈ 29.7 µg/mL) | 6.25 (≈ 3.72 µg/mL) | 200 (≈ 119 µg/mL) | 6.25 (≈ 3.72 µg/mL) | 100 (≈ 59.5 µg/mL) | 6.25 (≈ 3.72 µg/mL) | 200 (≈ 119 µg/mL) | 6.25 (≈ 3.72 µg/mL) | 200 (≈ 119 µg/mL) | 6.25 (≈ 3.72 µg/mL) | 3.13 to 6.25 (≈ 1.86 to 3.72 µg/mL) | 3 | displayed anti-bacterial activities | 12.5 (≈ 7.43 µg/mL) | MIC [5]: 3.13 µM (≈ 1.86 µg/mL); hemolysis at 1 h, 200 µM [6]: 0.27 ± 0.1%; hemolysis at 1 h [6]: 0.17 ± 0.05%
4 | CCOC(=O)C1=C(c2ccccc2)N=c2sc(=Cc3ccc(-c4cccc(C(=O)O)c4)o3)c(=O)n2C1c1ccc(F)cc1 (centres unmarked) [H5-32, 2-[5-(3-carboxy-phenyl)-furan-2-ylmethylene]-5-(4-fluoro-phenyl)-3-oxo-7-phenyl-2,3-dihydro-5H-thiazolo[3,2-a]pyrimidine-6-carboxylic acid ethyl ester] | 200 | >200 | > 200 | > 200 | 100 (≈ 59.5 µg/mL) | 3.13 (≈ 1.86 µg/mL) | 50 (≈ 29.7 µg/mL) | 3.13 (≈ 1.86 µg/mL) | 100 (≈ 59.5 µg/mL) | 6.25 (≈ 3.72 µg/mL) | 50 (≈ 29.7 µg/mL) | 6.25 (≈ 3.72 µg/mL) | 200 (≈ 119 µg/mL) | 3.13 (≈ 1.86 µg/mL) | 100 (≈ 59.5 µg/mL) | 6.25 (≈ 3.72 µg/mL) | 3.13 to 6.25 (≈ 1.86 to 3.72 µg/mL) | 3 | displayed anti-bacterial activities | 100 (≈ 59.5 µg/mL) | MIC [5]: 3.13 µM (≈ 1.86 µg/mL); hemolysis at 1 h, 200 µM [6]: 0.24 ± 0.05%; hemolysis at 1 h [6]: 0.15 ± 0.05%
